Species: Rattus norvegicus
Assay: DrugMatrix - Regimen: Daily Repeat
Format: toxicity, organism-based, Sprague-Dawley
Design: regimen Daily Repeat, gender Male, age 6-8 weeks
Conditions: in vivo, po, 60 mg/kg, route oral GAVAGE, dose level High, vehicle 100 % WATER; for ABSOLUTE BASOPHIL / ABSOLUTE EOSINOPHIL / ABSOLUTE LYMPHOCYTE / ABSOLUTE MONOCYTE / ABSOLUTE SEGMENTED NEUTROPHIL / BASOPHIL / EOSINOPHIL / ERYTHROCYTE COUNT / HEMATOCRIT / HEMOGLOBIN / LEUKOCYTE COUNT / LYMPHOCYTE / MEAN CORPUSCULAR HEMOGLOBIN / MEAN CORPUSCULAR HEMOGLOBIN CONCENTRATION / MEAN CORPUSCULAR VOLUME / MONOCYTE / NEUTROPHIL / NUCLEATED RED BLOOD CELLS / PLATELET COUNT: tissue Blood; for ALANINE AMINOTRANSFERASE / ALBUMIN / ALKALINE PHOSPHATASE / ASPARTATE AMINOTRANSFERASE / BLOOD UREA NITROGEN / CARBON DIOXIDE / CHLORIDE / CHOLESTEROL / CREATININE / GLUCOSE / LACTATE DEHYDROGENASE / LIPASE / PHOSPHORUS / POTASSIUM / SODIUM / TOTAL BILIRUBIN / TOTAL PROTEIN / URIC ACID: tissue Plasma

Nc1ccc(O)c(N)c1 [2,4-DIAMINOPHENOL]
ABSOLUTE BASOPHIL (120 h, time 5 day): 0 CELLS/uL | ABSOLUTE EOSINOPHIL (120 h, time 5 day): 0 CELLS/uL | ABSOLUTE LYMPHOCYTE (120 h, time 5 day): 5905 CELLS/uL | ABSOLUTE MONOCYTE (120 h, time 5 day): 88.67 CELLS/uL | ABSOLUTE SEGMENTED NEUTROPHIL (120 h, time 5 day): 839.67 CELLS/uL | BASOPHIL (120 h, time 5 day): 0% | EOSINOPHIL (120 h, time 5 day): 0% | ERYTHROCYTE COUNT (120 h, time 5 day): 5.11 x10E6/uL | HEMATOCRIT (120 h, time 5 day): 31.43% | HEMOGLOBIN (120 h, time 5 day): 11.77 G/DL | LEUKOCYTE COUNT (120 h, time 5 day): 6.83 x10E3/uL | LYMPHOCYTE (120 h, time 5 day): 86.33% | MEAN CORPUSCULAR HEMOGLOBIN (120 h, time 5 day): 23.1 pg | MEAN CORPUSCULAR HEMOGLOBIN CONCENTRATION (120 h, time 5 day): 37.43 G/DL | MEAN CORPUSCULAR VOLUME (120 h, time 5 day): 61.57 fL | MONOCYTE (120 h, time 5 day): 1.33% | NEUTROPHIL (120 h, time 5 day): 12.33% | NUCLEATED RED BLOOD CELLS (120 h, time 5 day): 0 /100WBC | PLATELET COUNT (120 h, time 5 day): 990.67 x10E3/uL | ALANINE AMINOTRANSFERASE (120 h, time 5 day): 50.33 u/L | ALBUMIN (120 h, time 5 day): 4.63 G/DL | ALKALINE PHOSPHATASE (120 h, time 5 day): 303.67 u/L | ASPARTATE AMINOTRANSFERASE (120 h, time 5 day): 73 u/L | BLOOD UREA NITROGEN (120 h, time 5 day): 12.67 mg/dL | CARBON DIOXIDE (120 h, time 5 day): 33 mmol/L | CHLORIDE (120 h, time 5 day): 99.67 MEQ/L | CHOLESTEROL (120 h, time 5 day): 71.67 mg/dL | CREATININE (120 h, time 5 day): 0.15 mg/dL | GLUCOSE (120 h, time 5 day): 135.33 mg/dL | LACTATE DEHYDROGENASE (120 h, time 5 day): 84.67 u/L | LIPASE (120 h, time 5 day): 8.67 u/L | PHOSPHORUS (120 h, time 5 day): 12.63 mg/dL | POTASSIUM (120 h, time 5 day): 6.25 MEQ/L | SODIUM (120 h, time 5 day): 146.5 MEQ/L | TOTAL BILIRUBIN (120 h, time 5 day): 0.23 mg/dL | TOTAL PROTEIN (120 h, time 5 day): 6.5 G/DL | URIC ACID (120 h, time 5 day): 0.67 mg/dL | ABSOLUTE BASOPHIL ([…], time 14 day): 0 CELLS/uL | ABSOLUTE EOSINOPHIL ([…], time 14 day): 124 CELLS/uL | ABSOLUTE LYMPHOCYTE ([…], time 14 day): 13347.2 CELLS/uL | ABSOLUTE MONOCYTE ([…], time 14 day): 291 CELLS/uL | ABSOLUTE SEGMENTED NEUTROPHIL ([…], time 14 day): 2297.8 CELLS/uL | BASOPHIL ([…], time 14 day): 0% | EOSINOPHIL ([…], time 14 day): 0.8% | ERYTHROCYTE COUNT ([…], time 14 day): 5.92 x10E6/uL | HEMATOCRIT ([…], time 14 day): 34.56% | HEMOGLOBIN ([…], time 14 day): 13 G/DL | LEUKOCYTE COUNT ([…], time 14 day): 16.06 x10E3/uL | LYMPHOCYTE ([…], time 14 day): 83% | MEAN CORPUSCULAR HEMOGLOBIN ([…], time 14 day): 22.04 pg | MEAN CORPUSCULAR HEMOGLOBIN CONCENTRATION ([…], time 14 day): 37.6 G/DL | MEAN CORPUSCULAR VOLUME ([…], time 14 day): 58.5 fL | MONOCYTE ([…], time 14 day): 1.8% | NEUTROPHIL ([…], time 14 day): 14.4% | NUCLEATED RED BLOOD CELLS ([…], time 14 day): 0 /100WBC | PLATELET COUNT ([…], time 14 day): 944.4 x10E3/uL | ALANINE AMINOTRANSFERASE ([…], time 14 day): 40.4 u/L | ALBUMIN ([…], time 14 day): 4.32 G/DL | ALKALINE PHOSPHATASE ([…], time 14 day): 271.4 u/L | ASPARTATE AMINOTRANSFERASE ([…], time 14 day): 76.6 u/L | BLOOD UREA NITROGEN ([…], time 14 day): 13.6 mg/dL | CARBON DIOXIDE ([…], time 14 day): 30.4 mmol/L | CHLORIDE ([…], time 14 day): 101.8 MEQ/L | CHOLESTEROL ([…], time 14 day): 67.4 mg/dL | CREATININE ([…], time 14 day): 0.15 mg/dL | GLUCOSE ([…], time 14 day): 150 mg/dL | LACTATE DEHYDROGENASE ([…], time 14 day): 271.8 u/L | LIPASE ([…], time 14 day): 7.8 u/L | PHOSPHORUS ([…], time 14 day): 13.62 mg/dL | POTASSIUM ([…], time 14 day): 6.71 MEQ/L | SODIUM ([…], time 14 day): 145.8 MEQ/L | TOTAL BILIRUBIN ([…], time 14 day): 0.14 mg/dL | TOTAL PROTEIN ([…], time 14 day): 6.06 G/DL | URIC ACID ([…], time 14 day): 1.14 mg/dL
